Data taken from patent publication US20070207154A1, “METHOD OF MODULATING VASCULARIZATION” (priority 2004, published 2007).

Test system: sprouting from wild-type, TFΔCT and PAR-2-deficient aortas
Assay: ex vivo angiogenesis assay (aortic ring sprouting in Matrigel)
Format: cell-based, mouse
Settings: for sprouting induced by single factor replacing serum: wild-type and TFΔCT aortas, EGM without serum, day 4, growth factors 20 ng/ml, VIIa 50 nM (FIG. 2c)
Description: Angiogenesis assays. The ex vivo angiogenesis assay was adopted from the rat aortic sprouting model described by Masson et al. Biol. Proced. […] Thoracic aortas from 8-11 week old wild-type, TFΔCT, PAR-2-deficient, and TFΔCT/PAR-2-deficient mice of either sex were embedded in Matrigel, and overlaid with EGM supplemented with 5% serum, growth factors, or inhibitors at the following concentrations: VEGF, bFGF, and PDGF: 20 ng/ml; hirudin: 500 nM, VIIai: […], NAPc2: […], NAP5: 1 μM, VIIa: 50 nM. In most cases, the number of aortic sprouts was determined at day 3 and 4 without knowledge of the genotype. Aortic ring RNA was isolated by Trizol (Invitrogen) extraction using standard procedures, digested with DNAaseI, followed by RT-PCR for β-actin and TF. […] Tests used 2 different virus doses, referred to as high (1.1×10^10 virus particles/ml) and low (5×10^9 particles/ml). For confocal fluorescence microscopy, aortic pieces with a minimum of surrounding Matrigel were fixed with 4% paraformaldehyde and methanol, incubated with primary and secondary antibodies (24 hours each), and mounted in anti-fade medium (Vector laboratories). Alternatively, cryosections of OCT-embedded aortas were fixed with acetone and stained as described above.

| Substance | sprouting induced by single factor replacing serum | effect of protease inhibitor on aortic sprouting (wild-type and TFΔCT aortas in serum, 3 days, hirudin 500 nM, NAP5 1 μM (FIG. 2b)) | sprouting of aortas stimulated with VEGF in the absence of serum (VEGF 20 ng/ml, no serum, day 3 (FIG. 2a)) | difference in sprouting TFΔCT versus wild-type aortas with serum supplemented with VEGF (serum plus VEGF 20 ng/ml, day 3 (FIG. 2a)) |
| --- | --- | --- | --- | --- |
| bFGF: pro-angiogenic growth factor | None of these factors promoted substantial sprouting |  |  |  |
| PDGF-AA: selective agonist for PDGF receptor a | None of these factors promoted substantial sprouting |  |  |  |
| hirudin [reference compound] |  | no effect on sprouting |  |  |
| VEGF | None of these factors promoted substantial sprouting |  | very limited sprouting | did not abolish the difference in sprouting |
